Assay results published in PMC9740829, “Salvianolic Acid B Strikes Back: New Evidence in the Modulation of Expression and Activity of Matrix Metalloproteinase 9 in MDA-MB-231 Human Breast Cancer Cells” (Molecules, 2022).

Biological target: T1, matrix metalloproteinase 9 (MMP-9) (Homo sapiens, UniProt P14780)
T1 construct: gene MMP9; recombinant catalytic domain of MMP-9 (CDMMP-9), 39 kDa, aa 107–457 + NT His Tag
Experiment: fluorometric inhibition assay with self-quenched peptide substrate; double reciprocal and secondary plots
Type: biochemical
From the text: fluorometric inhibition assay with self-quenched peptide substrate; double reciprocal and secondary plots on matrix metalloproteinase 9 (MMP-9) | competitive inhibition of the activity performed by the MMP-9 catalytic domain (CDMMP-9) (Figure 3A), and allowed to define a Ki

T1 sequence (P14780 107-457): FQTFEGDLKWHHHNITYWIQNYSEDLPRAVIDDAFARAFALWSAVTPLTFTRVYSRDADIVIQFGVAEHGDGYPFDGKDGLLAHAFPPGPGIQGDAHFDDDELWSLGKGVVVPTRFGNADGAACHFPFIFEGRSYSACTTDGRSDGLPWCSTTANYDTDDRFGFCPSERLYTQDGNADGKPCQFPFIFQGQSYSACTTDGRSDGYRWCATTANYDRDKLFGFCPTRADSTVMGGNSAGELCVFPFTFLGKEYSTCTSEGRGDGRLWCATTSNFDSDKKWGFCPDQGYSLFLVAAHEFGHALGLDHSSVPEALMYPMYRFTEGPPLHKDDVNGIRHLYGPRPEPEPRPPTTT

Ki: 57.4 ± 3.96 µM
Compound: O=C(/C=C/c1ccc(O)c2c1[C@H](C(=O)O[C@H](Cc1ccc(O)c(O)c1)C(=O)O)[C@@H](c1ccc(O)c(O)c1)O2)O[C@H](Cc1ccc(O)c(O)c1)C(=O)O [SalB, Salvianolic acid B]
